These results are taken from ChEMBL document CHEMBL3875166, “Synthesis and biological evaluation of new 6-hydroxypyridazinone benzisoxazoles: Potential multi-receptor-targeting atypical antipsychotics” (Eur J Med Chem, 2016).

Data set [1] can be described thus: Induction of catalepsy in po dosed Chinese Kun Ming mouse assessed as increase in unwanted extrapyramidal motor disturbances measured for 60 seconds. Type of data set: organism-based. The settings on record: in vivo, 1 min.
Data set [2] relates to Mus musculus. Put plainly: Inhibition of apomorphine-induced climbing behavior in po dosed Chinese Kun Ming mouse administered for 30 mins followed by apomorphine challenge and measured for 10 to 30 mins. Type of data set: functional.
Data set [3] concerns Mus musculus. Put plainly: Inhibition of MK-801 induced hyperactivity in po dosed Chinese Kun Ming mouse administered for 60 mins followed by MK-801 challenge and measured for 90 mins. Format: functional.
Data set [4] concerns the target T1, 5-hydroxytryptamine receptor 2C (Rattus norvegicus, UniProt P08909).
T1 sequence (P08909 whole entry): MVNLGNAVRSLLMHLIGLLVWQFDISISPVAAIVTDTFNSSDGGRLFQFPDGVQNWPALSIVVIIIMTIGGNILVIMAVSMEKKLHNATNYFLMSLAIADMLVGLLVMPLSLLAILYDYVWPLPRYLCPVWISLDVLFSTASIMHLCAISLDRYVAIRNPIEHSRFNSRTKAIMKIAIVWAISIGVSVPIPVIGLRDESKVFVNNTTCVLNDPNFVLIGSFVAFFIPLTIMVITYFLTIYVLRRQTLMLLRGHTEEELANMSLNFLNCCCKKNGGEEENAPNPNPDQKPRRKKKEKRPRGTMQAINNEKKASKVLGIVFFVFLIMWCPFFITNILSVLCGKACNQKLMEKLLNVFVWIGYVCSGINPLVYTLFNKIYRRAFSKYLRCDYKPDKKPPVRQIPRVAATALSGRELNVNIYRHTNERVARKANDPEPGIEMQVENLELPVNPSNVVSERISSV
Kind of data set: Displacement of [3H]mesulergine from 5-HT2C receptor in Sprague-Dawley rat cerebral cortex incubated for 15 mins in presence of spiperone by liquid scintillation counting analysis.

Data set [5] deals with 5-hydroxytryptamine receptor 6 (Homo sapiens, UniProt P50406). Kind of data set: Displacement of [3H]lysergic acid diethylamide from human recombinant 5-HT6 receptor expressed in CHO cell membranes for 30 mins by liquid scintillation counting analysis.
The target in data set [6] is T2, Adrenergic receptor alpha-1 (Rattus norvegicus, UniProt P15823+P23944+P43140).
T2 sequence (P15823 whole entry): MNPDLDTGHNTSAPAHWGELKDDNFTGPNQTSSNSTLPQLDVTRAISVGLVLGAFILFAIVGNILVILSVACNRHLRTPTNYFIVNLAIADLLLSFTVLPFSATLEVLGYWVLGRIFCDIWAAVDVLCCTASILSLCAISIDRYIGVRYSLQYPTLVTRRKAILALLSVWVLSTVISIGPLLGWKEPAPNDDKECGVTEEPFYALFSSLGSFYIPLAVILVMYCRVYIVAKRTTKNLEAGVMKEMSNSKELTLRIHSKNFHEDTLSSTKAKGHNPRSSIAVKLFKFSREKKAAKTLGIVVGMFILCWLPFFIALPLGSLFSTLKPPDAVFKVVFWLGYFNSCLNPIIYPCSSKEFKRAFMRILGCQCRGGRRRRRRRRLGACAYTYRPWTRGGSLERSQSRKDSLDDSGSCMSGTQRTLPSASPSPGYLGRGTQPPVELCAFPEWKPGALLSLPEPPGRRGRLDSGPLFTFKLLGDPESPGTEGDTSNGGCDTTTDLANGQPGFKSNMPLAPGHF
T2 sequence (P23944 whole entry): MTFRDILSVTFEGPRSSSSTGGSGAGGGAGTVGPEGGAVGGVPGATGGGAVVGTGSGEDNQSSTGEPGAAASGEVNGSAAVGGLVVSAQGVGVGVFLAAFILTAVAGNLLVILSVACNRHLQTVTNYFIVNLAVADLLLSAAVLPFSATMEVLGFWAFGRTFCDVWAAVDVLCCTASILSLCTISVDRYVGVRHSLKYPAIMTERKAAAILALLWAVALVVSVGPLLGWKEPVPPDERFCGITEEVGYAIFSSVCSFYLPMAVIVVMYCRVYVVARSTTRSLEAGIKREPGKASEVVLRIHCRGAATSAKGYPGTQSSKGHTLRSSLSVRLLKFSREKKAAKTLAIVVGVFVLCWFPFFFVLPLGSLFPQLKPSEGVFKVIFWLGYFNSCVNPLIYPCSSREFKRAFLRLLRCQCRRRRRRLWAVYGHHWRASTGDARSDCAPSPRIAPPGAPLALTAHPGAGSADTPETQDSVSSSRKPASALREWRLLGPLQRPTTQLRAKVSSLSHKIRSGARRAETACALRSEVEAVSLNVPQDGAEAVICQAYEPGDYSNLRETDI
T2 sequence (P43140 whole entry): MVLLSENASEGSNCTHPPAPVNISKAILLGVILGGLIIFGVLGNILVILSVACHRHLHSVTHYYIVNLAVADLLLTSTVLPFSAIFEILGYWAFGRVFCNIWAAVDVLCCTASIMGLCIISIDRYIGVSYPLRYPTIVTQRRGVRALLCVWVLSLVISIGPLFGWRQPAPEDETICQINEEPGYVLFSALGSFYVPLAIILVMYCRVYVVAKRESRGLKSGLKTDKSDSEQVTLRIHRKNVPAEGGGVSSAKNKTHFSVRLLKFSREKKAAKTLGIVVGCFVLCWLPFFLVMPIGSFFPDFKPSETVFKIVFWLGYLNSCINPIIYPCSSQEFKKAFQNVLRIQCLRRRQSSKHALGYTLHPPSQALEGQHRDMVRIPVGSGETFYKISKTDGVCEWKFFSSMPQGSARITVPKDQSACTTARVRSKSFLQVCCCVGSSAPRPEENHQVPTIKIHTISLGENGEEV
Kind of data set: Displacement of [3H]prazosin from adrenergic alpha1 receptor in Sprague-Dawley rat cerebral cortex incubated for 60 mins by liquid scintillation counting analysis.

The target of a further data set is D(2) dopamine receptor (Rattus norvegicus, UniProt P61169). Kind of data set: Displacement of [3H]spiperone from dopamine D2 receptor in Sprague-Dawley rat striatum incubated for 30 mins by liquid scintillation counting analysis.
The target in a further data set is Histamine H1 receptor (Cavia porcellus, UniProt P31389). Kind of data set: Displacement of [3H]mepyramine from histamine H1 receptor in guinea pig cerebellum incubated for 60 mins by liquid scintillation counting analysis.
Data set [7] deals with 5-hydroxytryptamine receptor 2A (Rattus norvegicus, UniProt P14842). Kind of data set: Displacement of [3H] ketanserin from 5-HT2A receptor in Sprague-Dawley rat cerebral cortex incubated for 30 mins by liquid scintillation counting analysis.
Data set [8] deals with T3, 5-hydroxytryptamine receptor 1A (Rattus norvegicus, UniProt P19327).
T3 sequence (P19327 whole entry): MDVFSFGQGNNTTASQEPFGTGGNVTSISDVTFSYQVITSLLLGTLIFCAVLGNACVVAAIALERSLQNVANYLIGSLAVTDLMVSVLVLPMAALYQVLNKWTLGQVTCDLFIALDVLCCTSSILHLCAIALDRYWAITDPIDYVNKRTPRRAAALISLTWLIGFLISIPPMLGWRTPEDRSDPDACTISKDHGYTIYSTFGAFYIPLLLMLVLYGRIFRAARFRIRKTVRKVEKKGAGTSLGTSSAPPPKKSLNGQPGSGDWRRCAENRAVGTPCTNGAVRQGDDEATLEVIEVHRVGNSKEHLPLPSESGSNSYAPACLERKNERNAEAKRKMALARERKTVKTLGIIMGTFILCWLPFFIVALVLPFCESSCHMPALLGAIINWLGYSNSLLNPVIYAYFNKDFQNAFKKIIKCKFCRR
Put plainly: Displacement of [3H]8-OH-DPAT from 5-HT1A receptor in Sprague-Dawley rat cerebral cortex incubated for 30 mins by liquid scintillation counting analysis.

The nature of data set [9]: Toxicity in po dosed Chinese Kun Ming mouse assessed as lethality after 24 hrs. Format: organism-based. The settings on record: in vivo.
Data set [10] is described as follows: Therapeutic index, ratio of ED50 for induction of catalepsy in po dosed Chinese Kun Ming mouse to ED50 for inhibition of MK-801 induced hyperactivity in po dosed Chinese Kun Ming mouse. Conditions: in vivo, read-out: Ratio ED50. Type of data set: organism-based.
The nature of data set [11]: Therapeutic index, ratio of ED50 for induction of catalepsy in po dosed Chinese Kun Ming mouse to ED50 for inhibition of apomorphine-induced climbing behavior in po dosed Chinese Kun Ming mouse. Format: organism-based. The settings on record: in vivo, read-out: Ratio ED50.

Some results are limits rather than exact numbers.

D(2) dopamine receptor, sequence (P61169 whole entry): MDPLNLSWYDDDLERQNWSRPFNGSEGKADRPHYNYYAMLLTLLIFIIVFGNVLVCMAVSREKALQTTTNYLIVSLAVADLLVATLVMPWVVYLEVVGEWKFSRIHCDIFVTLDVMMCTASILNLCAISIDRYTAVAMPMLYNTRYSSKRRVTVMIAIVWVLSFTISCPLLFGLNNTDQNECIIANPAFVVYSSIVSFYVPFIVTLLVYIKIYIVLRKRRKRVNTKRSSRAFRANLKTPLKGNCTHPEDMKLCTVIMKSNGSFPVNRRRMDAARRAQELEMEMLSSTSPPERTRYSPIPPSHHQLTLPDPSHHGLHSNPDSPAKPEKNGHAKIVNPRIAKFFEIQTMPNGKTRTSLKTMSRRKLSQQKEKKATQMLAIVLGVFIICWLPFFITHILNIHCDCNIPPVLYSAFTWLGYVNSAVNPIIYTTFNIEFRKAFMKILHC
5-hydroxytryptamine receptor 2A, sequence (P14842 whole entry): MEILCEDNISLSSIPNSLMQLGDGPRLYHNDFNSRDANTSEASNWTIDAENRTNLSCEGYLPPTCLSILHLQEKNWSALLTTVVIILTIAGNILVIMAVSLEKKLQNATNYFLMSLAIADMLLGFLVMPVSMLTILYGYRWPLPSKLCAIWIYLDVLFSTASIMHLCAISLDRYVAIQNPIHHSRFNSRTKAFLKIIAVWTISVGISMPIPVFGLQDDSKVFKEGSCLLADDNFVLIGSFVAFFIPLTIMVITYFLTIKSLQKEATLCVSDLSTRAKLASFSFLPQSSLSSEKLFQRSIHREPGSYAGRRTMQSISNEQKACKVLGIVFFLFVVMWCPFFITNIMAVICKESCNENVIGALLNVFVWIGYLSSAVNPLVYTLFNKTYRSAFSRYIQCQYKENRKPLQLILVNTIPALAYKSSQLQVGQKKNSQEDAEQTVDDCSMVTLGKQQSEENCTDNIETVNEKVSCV
Histamine H1 receptor, sequence (P31389 whole entry): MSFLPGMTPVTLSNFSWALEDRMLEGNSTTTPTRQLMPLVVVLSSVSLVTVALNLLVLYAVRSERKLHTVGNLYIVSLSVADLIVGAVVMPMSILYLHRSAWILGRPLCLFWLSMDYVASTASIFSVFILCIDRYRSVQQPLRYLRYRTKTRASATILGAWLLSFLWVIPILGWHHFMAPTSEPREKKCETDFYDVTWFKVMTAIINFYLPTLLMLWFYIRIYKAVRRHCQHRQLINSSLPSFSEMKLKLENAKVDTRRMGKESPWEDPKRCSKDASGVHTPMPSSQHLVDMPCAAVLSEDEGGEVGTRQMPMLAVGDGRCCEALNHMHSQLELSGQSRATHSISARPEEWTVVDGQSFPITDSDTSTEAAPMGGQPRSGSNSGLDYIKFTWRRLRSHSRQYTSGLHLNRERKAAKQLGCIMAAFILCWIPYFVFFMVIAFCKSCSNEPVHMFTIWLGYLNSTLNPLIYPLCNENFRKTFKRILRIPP
5-hydroxytryptamine receptor 6, sequence (P50406 whole entry): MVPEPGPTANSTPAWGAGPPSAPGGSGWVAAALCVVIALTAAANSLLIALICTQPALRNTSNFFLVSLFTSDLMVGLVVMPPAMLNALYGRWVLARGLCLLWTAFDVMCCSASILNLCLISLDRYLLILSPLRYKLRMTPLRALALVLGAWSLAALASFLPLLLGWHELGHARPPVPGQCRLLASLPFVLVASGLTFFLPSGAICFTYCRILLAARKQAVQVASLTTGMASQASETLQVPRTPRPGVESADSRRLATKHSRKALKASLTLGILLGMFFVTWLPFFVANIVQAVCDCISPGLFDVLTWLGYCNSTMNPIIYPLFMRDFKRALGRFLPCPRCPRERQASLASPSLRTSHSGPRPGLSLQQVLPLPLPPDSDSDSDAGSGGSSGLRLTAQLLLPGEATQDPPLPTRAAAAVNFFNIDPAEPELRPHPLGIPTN

With `Cc1nc2n(c(=O)c1CCN1CCC(c3noc4cc(F)ccc34)CC1)CCCC2` [RISPERIDONE], the 50% effective dose (ED50) in data set [1] was found to be 0.38 mg/kg; with Mus musculus [2] it was 0.02 mg/kg; in the data set on Mus musculus [3] it was 0.018 mg/kg.

As for `O=c1ccc(OCCCN2CCC(c3noc4cc(F)ccc34)CC2)nn1-c1cc(Cl)ccc1Cl`, the Ki in data set [4] was 1 nM; in data set [5], 11.7 nM; in data set [6], 147 nM; at D(2) dopamine receptor, 2.7 nM; at Histamine H1 receptor, 186 nM; in [7], 0.7 nM.

On to `O=c1ccc(OCCCN2CCC(c3noc4cc(F)ccc34)CC2)nn1-c1cc(F)ccc1F`, for which the Ki in [4] stood at 9.1 nM; in data set [5] it was 3.8 nM; in data set [6], 337 nM; in [8], 9 nM; on D(2) dopamine receptor, 6.1 nM; at Histamine H1 receptor, 115 nM. The Ki in data set [7] was 11.2 nM.

`O=c1ccc(OCCCN2CCC(c3noc4cc(F)ccc34)CC2)nn1-c1cccc(Cl)c1Cl`: the Ki in data set [4] stood at 177 nM; in [5] it was 113 nM; in data set [6] it was 118 nM; in data set [8], 9.3 nM; at D(2) dopamine receptor it was 0.2 nM; on Histamine H1 receptor, 16.6 nM. In [7], this molecule gave a Ki of 0.5 nM.

Regarding `O=c1ccc(OCCCN2CCC(c3noc4cc(F)ccc34)CC2)nn1-c1c(F)cccc1F`, in [9], the 50% lethal dose (LD50) at 24 h is more than 2000 mg/kg. The Ki in data set [4] turned out to be 1580 nM; in data set [5] it was 0.5 nM; in data set [6] it was 1098 nM; in [8], 5.9 nM; at D(2) dopamine receptor, 0.5 nM; on Histamine H1 receptor, 2000 nM. This molecule showed a Ki in [7] of 0.3 nM. Also, the results for the selectivity ratio in data set [10] and in data set [11] were 79.4 and 50.7, respectively. Besides, the 50% effective dose (ED50) in data set [1] turned out to be 23.82 mg/kg; in the data set with Mus musculus [2], 0.47 mg/kg; in the data set with Mus musculus [3] it was 0.3 mg/kg.

Take `O=C(CCCN1CCC(O)(c2ccc(Cl)cc2)CC1)c1ccc(F)cc1` [HALOPERIDOL]: the selectivity ratio stood at 2.95 in data set [10] and 3.11 in data set [11]. The 50% effective dose (ED50) in [1] is 0.56 mg/kg; with Mus musculus [2], 0.18 mg/kg; with Mus musculus [3], 0.19 mg/kg.
